The source of these data is US12581252B2, “Substituted pyrrolo[3,4-b]pyridines as PI3K-α inhibitors” (Relay Therapeutics, Inc., priority 2020, dated 2026).

Bounds are passed on as bounds.

The target in this test is H1047R PIK3CA enzyme (Homo sapiens, UniProt P42336, H1047R). Nature of the test: ADP-Glo Biochemical PIK3CA Kinase Assay.
H1047R PIK3CA enzyme, sequence (P42336 whole entry H1047R): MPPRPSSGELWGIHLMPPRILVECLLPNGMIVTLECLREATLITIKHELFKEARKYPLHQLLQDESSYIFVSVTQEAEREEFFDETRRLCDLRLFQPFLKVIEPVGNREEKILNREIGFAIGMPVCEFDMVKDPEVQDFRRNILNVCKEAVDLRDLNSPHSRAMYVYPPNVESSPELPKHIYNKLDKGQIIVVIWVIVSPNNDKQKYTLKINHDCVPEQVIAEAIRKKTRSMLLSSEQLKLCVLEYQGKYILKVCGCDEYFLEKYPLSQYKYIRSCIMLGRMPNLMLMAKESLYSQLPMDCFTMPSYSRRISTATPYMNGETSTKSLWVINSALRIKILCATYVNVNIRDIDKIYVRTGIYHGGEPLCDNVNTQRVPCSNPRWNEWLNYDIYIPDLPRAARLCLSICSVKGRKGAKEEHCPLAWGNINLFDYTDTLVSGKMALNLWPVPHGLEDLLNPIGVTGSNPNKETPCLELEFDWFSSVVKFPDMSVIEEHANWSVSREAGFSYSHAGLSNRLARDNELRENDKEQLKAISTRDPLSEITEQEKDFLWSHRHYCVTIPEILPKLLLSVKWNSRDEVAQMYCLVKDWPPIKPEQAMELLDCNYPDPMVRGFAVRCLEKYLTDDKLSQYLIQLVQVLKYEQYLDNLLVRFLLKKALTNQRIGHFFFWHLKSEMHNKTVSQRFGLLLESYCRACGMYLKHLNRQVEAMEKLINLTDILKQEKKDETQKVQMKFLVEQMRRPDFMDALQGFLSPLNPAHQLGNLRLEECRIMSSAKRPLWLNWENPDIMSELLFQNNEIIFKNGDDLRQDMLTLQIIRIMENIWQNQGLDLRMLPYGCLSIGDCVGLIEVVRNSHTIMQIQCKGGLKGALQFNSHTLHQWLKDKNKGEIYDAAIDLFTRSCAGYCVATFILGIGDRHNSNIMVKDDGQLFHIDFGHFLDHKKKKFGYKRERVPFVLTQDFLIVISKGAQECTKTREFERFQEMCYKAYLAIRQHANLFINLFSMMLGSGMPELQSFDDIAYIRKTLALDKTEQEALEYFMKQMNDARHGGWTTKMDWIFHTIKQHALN
H1047R PIK3CA enzyme, sequence (P27986 whole entry partner): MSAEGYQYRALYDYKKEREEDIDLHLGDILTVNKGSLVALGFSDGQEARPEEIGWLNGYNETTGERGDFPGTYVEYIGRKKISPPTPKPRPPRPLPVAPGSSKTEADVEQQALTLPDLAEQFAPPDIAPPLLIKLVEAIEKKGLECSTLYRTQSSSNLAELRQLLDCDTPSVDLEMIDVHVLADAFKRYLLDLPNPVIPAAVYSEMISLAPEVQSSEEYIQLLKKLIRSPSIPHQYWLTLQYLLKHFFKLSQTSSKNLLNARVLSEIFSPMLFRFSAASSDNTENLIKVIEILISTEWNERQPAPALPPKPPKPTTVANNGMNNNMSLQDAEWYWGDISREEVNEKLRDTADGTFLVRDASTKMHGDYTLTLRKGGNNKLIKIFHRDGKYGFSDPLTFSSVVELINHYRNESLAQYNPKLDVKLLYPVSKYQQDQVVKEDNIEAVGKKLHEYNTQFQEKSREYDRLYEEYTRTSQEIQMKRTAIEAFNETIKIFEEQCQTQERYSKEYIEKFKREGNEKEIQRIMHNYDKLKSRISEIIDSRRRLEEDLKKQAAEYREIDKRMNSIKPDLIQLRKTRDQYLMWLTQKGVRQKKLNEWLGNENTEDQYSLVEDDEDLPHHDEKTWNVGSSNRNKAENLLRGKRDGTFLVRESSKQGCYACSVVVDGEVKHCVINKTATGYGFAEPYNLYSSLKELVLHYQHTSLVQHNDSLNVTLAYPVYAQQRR
The term IC50 denotes the concentration that inhibits the measured activity by half. Higher therefore signals weaker potency. With `COCc1cc(NC(=O)N2C[C@@](O)(C(F)(F)F)c3cc(F)ccc32)c2c(c1)C(=O)N[C@H]2c1cc(F)ccc1Cl` (single isomer, unassigned) [Compound I-2543], the IC50 is 1000 to 10000 nM. `Cn1cc(-c2cc(NC(=O)c3cc(F)cc(C(F)(F)F)c3)c3c(n2)C(=O)NC3c2cc(F)ccc2Cl)cn1` (stereo not drawn) [Compound I-162] displayed an IC50 of no more than 100 nM. Take `O=C1NC(c2cc(F)ccc2Cl)c2c(NC(=O)N3CCCC34CCC4)cc(Br)cc21` (stereo not drawn) [Compound I-2377]: the IC50 fell in the range of 500 to 1000 nM. The figure for `COc1cc(C(=O)Nc2cc(N)cc3c2C(c2cc(F)ccc2C(F)F)NC3=O)cc(F)c1N` (stereo not drawn) [Compound I-474] is 10000 to 100000 nM; for `COC1CC(Nc2cc(NC(=O)c3cc(F)cc(C(F)(F)F)c3)c3c(c2)C(=O)NC3c2cc(F)ccc2Cl)C1` (single isomer, unassigned) [Compound I-781] it is no more than 100 nM. Next, `Cc1ccccc1C1NC(=O)c2cccc(NC(=O)c3ncc4c(F)cc(F)cn34)c21` (stereo not drawn) [Compound I-180, 6,8-Difluoro-N-(1-oxo-3-(o-tolyl)isoindolin-4-yl)imidazo[1,5-a]pyridine-3-carboxamide]: 10000 to 100000 nM; `O=C(Nc1cc(-c2ccc3c(c2)OCCCO3)cc2c1C(c1cc(F)ccc1Cl)NC2=O)c1cc(F)cc(C(F)(F)F)c1` (stereo not drawn) [Compound I-851]: no more than 100 nM.

For the compound `O=C1NC(c2cc(F)ccc2Cl)c2c(NC(=O)C34CC(CO)(C3)C4)cccc21` (stereo not drawn) [Compound I-2219], the IC50 was 10000 to 100000 nM. `O=C1N[C@@H](c2cc(F)ccc2Cl)c2c(NC(=O)N3C[C@@](O)(C(F)(F)F)c4cc(F)ccc43)cc(F)cc21` (single isomer, unassigned) [Compound I-2628] yielded an IC50 of 1000 to 10000 nM. For `O=C1NC(c2ccccc2Cl)c2c(NC(=O)c3nsc4ccccc34)cc(Cl)nc21` (stereo not drawn) [Compound I-93, N-[2-Chloro-5-(2-chlorophenyl)-7-oxo-5H,6H,7H-pyrrolo[3,4-b]pyridin-4-yl]-1,2-benzothiazole-3-carboxamide], the IC50 was no more than 100 nM. As to `Cc1ccccc1C1NC(=O)c2cccc(NC(=O)c3cc(=O)[nH]c4ccccc34)c21` (stereo not drawn) [Compound I-30], the IC50 lay within 10000 to 100000 nM. Compound `Cn1nccc1C(=O)c1cc(NC(=O)c2cc(F)cc(C(F)(F)F)c2)c2c(c1)C(=O)NC2c1cc(F)ccc1Cl` (stereo not drawn) [Compound I-1380] had an IC50 of no more than 100 nM. The compound `COC(=O)c1cc(NC(=O)c2cc(F)cc(C(F)(F)F)c2)c2c(c1)C(=O)NC2c1cc(F)ccc1Cl` (stereo not drawn) [Compound I-373] yielded an IC50 of no more than 100 nM. `C[C@@H](C#N)Oc1cc(NC(=O)c2cc(F)cc(C(F)(F)F)c2)c2c(c1)C(=O)N[C@@H]2c1cc(F)ccc1Cl` (single isomer, unassigned) [Compound I-2007]: the IC50 fell in the range of 1000 to 10000 nM. `Nc1nc(NC(=O)c2cc(F)cc(C(F)(F)F)c2)c2c(n1)C(=O)NC2c1ccccc1Cl` (stereo not drawn) [Compound I-184] displayed an IC50 of 500 to 1000 nM. The figure for `Cc1ncccc1-c1cc(NC(=O)c2cc(F)cc(C(F)(F)F)c2)c2c(c1)C(=O)NC2c1cc(F)ccc1Cl` (stereo not drawn) [Compound I-1152] is no more than 100 nM; for `O=C(Nc1cc(-c2ccncc2F)nc2c1C(c1cc(F)ccc1Cl)NC2=O)c1cc(F)cc(C(F)(F)F)c1` (stereo not drawn) [Compound I-548] it is no more than 100 nM.

`O=C(Nc1cc(-c2ccc(=O)n(C3CC3)c2)nc2c1[C@@H](c1cc(F)ccc1Cl)NC2=O)c1cc(F)cc(C(F)(F)F)c1` [Compound I-746] gave an IC50 of 1000 to 10000 nM. In turn, `O=C(Nc1cc(Br)cc2c1C(c1cc(F)ccc1Cl)NC2=O)c1cc(C(F)(F)F)cs1` (stereo not drawn) [Compound I-1428] had an IC50 of 1000 to 10000 nM.

As for `CNc1cc(NC(=O)N2C[C@](O)(C(F)(F)F)c3cc(F)ccc32)c2c(c1)C(=O)N[C@@H]2c1cc(F)ccc1Cl` (single isomer, unassigned) [Compound I-2641], the IC50 is 500 to 1000 nM. Next, `Cn1nc(Nc2cc(-c3ccc4ncnn4c3)cc3c2C(c2cc(F)ccc2Cl)NC3=O)c2cc(F)cc(C(F)(F)F)c21` (stereo not drawn) [Compound I-2050]: 500 to 1000 nM; `CC(=O)c1cc(NC(=O)c2nsc3ccccc23)c2c(c1)C(=O)NC2c1cc(F)ccc1Cl` (stereo not drawn) [Compound I-135]: 500 to 1000 nM; `O=C(Nc1cc(Br)cc2c1C(c1cc(F)ccc1Cl)NC2=O)c1cc2ccccc2[nH]1` (stereo not drawn) [Compound I-1610]: 1000 to 10000 nM. `O=C(CO)Nc1cc(NC(=O)c2cc(F)cc(C(F)(F)F)c2)c2c(c1)C(=O)N[C@H]2c1cc(F)ccc1Cl` [Compound I-511] registered an IC50 of no more than 100 nM. Take `O=C1NC(c2cc(F)ccc2Cl)c2c(NC(=O)N3c4ccccc4C(O)C34CC4)cccc21` (mixture of isomers) [Compound I-2280]: the IC50 is 10000 to 100000 nM. In turn, `N#Cc1cc(NC(=O)N2C[C@@H](O)c3cc(F)ccc32)c2c(c1)C(=O)N[C@H]2c1cc(F)ccc1Cl` (single isomer, unassigned) [Compound I-2493] registered an IC50 of 100 to 500 nM. The figure for `O=C(Nc1cc(Br)cc2c1C(c1cc(F)ccc1Cl)NC2=O)NC12CC3CC(C1)CC(C(F)(F)F)(C3)C2` (stereo not drawn) [Compound I-1256] is 100 to 500 nM. `O=C1NC(c2cc(F)ccc2Cl)c2c(NC(=O)N3CCc4ccccc43)cc(Br)cc21` (stereo not drawn) [Compound I-309] had an IC50 of no more than 100 nM. `O=C1N[C@H](c2cc(F)ccc2Cl)c2c(NC(=O)N3C[C@@](O)(C(F)F)c4ccccc43)cccc21` (single isomer, unassigned) [Compound I-2484] yielded an IC50 of 10000 to 100000 nM. In turn, `Cc1ccccc1C1NC(=O)c2cc(Br)cc(NC(=O)c3cncc(C(F)(F)F)c3)c21` (stereo not drawn) [Compound I-528] registered an IC50 of 1000 to 10000 nM. `N#Cc1ccc2c(c1)N(C(=O)Nc1cccc3c1C(c1cc(F)ccc1Cl)NC3=O)CC2` (stereo not drawn) [Compound I-2427] returned an IC50 of 1000 to 10000 nM. In the case of `CC(C)C1CCN(C(=O)Nc2cccc3c2C(c2cc(F)ccc2Cl)NC3=O)C1` (mixture of isomers) [Compound I-2419], the IC50 was 10000 to 100000 nM. With `O=C1NC(c2cc(F)ccc2Cl)c2c(NC(=O)C3CNCCO3)cc(-c3ccc4ncnn4c3)cc21` (stereo not drawn) [Compound I-1900], the IC50 is 10000 to 100000 nM. For `CC(C)OC(C(=O)Nc1cc(-c2ccc3ncnn3c2)cc2c1C(c1cc(F)ccc1Cl)NC2=O)c1ccccc1` (stereo not drawn) [Compound I-1662], the IC50 is 1000 to 10000 nM. Next, `COc1cnc2ccc(-c3cc(NC(=O)c4cc(F)cc(C(F)(F)F)c4)c4c(c3)C(=O)NC4c3cc(F)ccc3Cl)cc2c1` (stereo not drawn) [Compound I-1602]: no more than 100 nM; `O=C1NC(c2cc(F)ccc2Cl)c2c(N/C(=N\O)c3cc(F)cc(C(F)(F)F)c3)cccc21` (stereo not drawn) [Compound I-1100]: no more than 100 nM; `O=C(Nc1cc(-c2cc(F)c3ncnn3c2)cc2c1[C@@H](c1cc(F)ccc1Cl)NC2=O)c1cc(F)cc(C(F)(F)F)c1` [Compound I-1703]: 10000 to 100000 nM. `O=C1NC(c2cc(F)ccc2Cl)c2c(COc3ccccc3)cc(-c3ccc4ncnn4c3)cc21` (stereo not drawn) [Compound I-2017] came in with an IC50 of 10000 to 100000 nM. Compound `O=C(Nc1cc(-c2ccc3nc(C(F)F)cn3c2)cc2c1C(c1cc(F)ccc1Cl)NC2=O)c1cc(F)cc(C(F)(F)F)c1` (stereo not drawn) [Compound I-1864] registered an IC50 of no more than 100 nM.

The compound `O=C(Nc1cc(OC2CCOC2)cc2c1C(c1cc(F)ccc1Cl)NC2=O)c1cc(F)cc(C(F)(F)F)c1` (stereo not drawn) [Compound I-1184] displayed an IC50 of no more than 100 nM. As to `O=C1NC(c2cc(F)ccc2Cl)c2c(NC(=O)N3CCc4ccccc43)ccnc21` (stereo not drawn) [Compound I-257], the IC50 lay within 500 to 1000 nM.

`C[C@@H]([C@H]1C[C@H](O)CN1C(=O)Nc1cccc2c1[C@H](c1cc(F)ccc1Cl)NC2=O)C(F)(F)F` (single isomer, unassigned) [Compound I-2378] had an IC50 of 10000 to 100000 nM. As to `O=C(Nc1cc(CC2(O)CC2)cc2c1C(c1cc(F)ccc1Cl)NC2=O)c1cc(F)cc(C(F)(F)F)c1` (stereo not drawn) [Compound I-644], the IC50 was no more than 100 nM.

In turn, `O=C(Nc1cc(Cn2cccn2)cc2c1[C@H](c1cc(F)ccc1Cl)NC2=O)c1cc(F)cc(C(F)(F)F)c1` (stereo in doubt) [Compound I-1615] displayed an IC50 of no more than 100 nM. Take `COCCOc1cc(NC(=O)c2cc(F)cc(C(F)(F)F)c2)c2c(c1)C(=O)NC2c1cc(F)ccc1Cl` (stereo not drawn) [Compound I-977]: the IC50 was in the range of 100 to 500 nM. Regarding `O=C(Nc1cc(-c2cn3c(F)cnc3cn2)cc2c1[C@@H](c1cc(F)ccc1Cl)NC2=O)c1cc(F)cc(C(F)(F)F)c1` [Compound I-1877], the IC50 fell in the range of 1000 to 10000 nM. With `N#CCCc1cc(NC(=O)c2cc(F)cc(C(F)(F)F)c2)c2c(c1)C(=O)N[C@@H]2c1cc(F)ccc1Cl` (stereo in doubt) [Compound I-2170], the concentration for half-maximal inhibition (IC50) was in the range of 10000 to 100000 nM. The compound `O=C(Nc1cc(Br)cc2c1C(c1cc(F)ccc1Cl)NC2=O)c1cc(O)cc(Cl)c1` (stereo not drawn) [Compound I-1282] came in with an IC50 of 100 to 500 nM. `Cn1ccc(-c2cc(NC(=O)c3cc(F)cc(C(F)(F)F)c3)c3c(c2)C(=O)NC3c2cc(F)ccc2Cl)cc1=O` (stereo not drawn) [Compound I-889] registered an IC50 of no more than 100 nM. The compound `O=C1NC(c2cc(F)ccc2Cl)c2c1cc(-c1ccc3ncnn3c1)cc2C1=CCCNC1` (stereo not drawn) [Compound I-1998] had an IC50 of 10000 to 100000 nM. On to `Cc1ccccc1C1NC(=O)c2cccc(NC(=O)c3n[nH]cc3-c3ccccc3)c21` (stereo not drawn) [Compound I-412], for which the IC50 is 10000 to 100000 nM. On to `Cn1nc(C(F)F)cc1-c1cc(NC(=O)c2cc(F)cc(C(F)(F)F)c2)c2c(c1)C(=O)NC2c1cc(F)ccc1Cl` (stereo not drawn) [Compound I-1839], for which the IC50 is no more than 100 nM.

The compound `O=C1NC(c2cc(F)ccc2Cl)c2c1cc(-c1ccc3ncnn3c1)cc2N1CCOCC1` (stereo not drawn) [Compound I-1911] yielded an IC50 of 10000 to 100000 nM. Take `O=C(Nc1cc(NC2=NC[C@@H](C(F)(F)F)O2)cc2c1[C@@H](c1cc(F)ccc1Cl)NC2=O)c1cc(F)cc(C(F)(F)F)c1` (single isomer, unassigned) [Compound I-2326]: the IC50 is 1000 to 10000 nM.

Turning to `O=C1N[C@H](c2cc(F)ccc2Cl)c2c(NC(=O)N3C[C@H](O)c4ccccc43)cc(Br)cc21` (single isomer, unassigned) [Compound I-1513], the IC50 lay in the range of 100 to 500 nM. With `Cn1nc(Nc2cc(Br)cc3c2C(c2cc(F)ccc2Cl)NC3=O)c2ccccc21` (stereo not drawn) [Compound I-1349], the IC50 lay within 10000 to 100000 nM. In turn, `O=C(Nc1cc(-c2cn(C(F)F)cn2)cc2c1C(c1cc(F)ccc1Cl)NC2=O)c1cc(F)cc(C(F)(F)F)c1` (stereo not drawn) [Compound I-1823] gave an IC50 of no more than 100 nM.
